In patent US11273166B2, “Methods and compositions for the treatment of obesity” (Monash University, priority 2017, dated 2022):
Residues, ends and D or L forms follow the SMILES beside them. *: point of attachment. Cbz = O=C(OCc1ccccc1)*

How the values were obtained:
Type in all cases: in vivo, mouse
[1] = system: ARC PI3K/AKT signaling (p-AKT); assay: Insulin-induced ARC p-AKT (Ser-473) immunohistochemistry in fed or fasted mice; conditions: insulin 0.85 mU/g i.p., 15 min
Description: 4 weeks post rAAV injection mice were administered (intraperitoneal) saline or insulin (0.85 mU/g, 15 min) and paraformaldehyde-fixed brains extracted for ARC p-AKT or GFP (insert) immunohistochemistry. d) Fed or fasted Ptpn2^fl/fl or AgRP-TC male mice were administered (intraperitoneal) saline or insulin (0.85 mU/g, 15 min) and paraformaldehyde-fixed brains extracted for ARC p-AKT immunohistochemistry. e) Fed or fasted Ptpn2^fl/fl versus AgRP-TC male mice on the Npy-hrGFP reporter background processed for c-Fos ARC immunohistochemistry. f) Whole-cell patch clamp recordings of hypothalamic NPY neurons from Ptpn2^fl/fl; Npy-hrGFP versus AgRP-TC; Npy-hrGFP male mice in response to insulin. […] Representative and quantified results (means±SEM) are shown for the indicated number of mice.
Mice were injected intraperitoneally with either vehicle, leptin (0.5-1.0 μg/g; Peprotech, Rehovot, Israel) for p-STAT-3 (Y705) or human insulin (0.85 mU/g, SIGMA, St Louis, Mo.) for p-AKT (Ser-473). Mice were transcardically perfused either 15 min (for p-AKT staining) or 45 min (for p-STAT3 staining) post-injection with a solution of 4% w/v (for p-AKT staining) paraformaldehyde. The brains were post-fixed overnight and then kept for two days in 30% (w/v) sucrose in 0.1 M phosphate buffer to cryoprotect the tissue, before freezing on dry ice. […]

[2] = system: AgRP neurons (hM4Di DREADD); assay: CNO in Agrp-Ires-Cre; Npy-hrGFP mice with rAAV-hM4Di-mCherry (DREADD) in the ARC; conditions: CNO 1.5 mg/kg/day i.p., 14 days
Text: FIG. 3. TCPTP deletion in AgRP neurons or AgRP neuronal inhibition promotes WAT browning and energy expenditure. a) Body weights, b) body composition, c) energy expenditure, d) daily food intake and e) BAT Ucp-1 gene expression in 18-week-old AgRP-TC and Ptpn2^fl/fl male mice. Inguinal WAT (ingWAT) was extracted from Ptpn2^fl/fl and AgRP-TC male mice and processed for f) histology (hematoxylin and eosin: H&E) and immunohistochemistry, g) quantitative PCR and h) immunoblotting. i) Ptpn2^fl/fl and AgRP-TC and Ptpn2^fl/fl male mice were subjected to ^18F-fluoro-2-deoxy-D-glucose (^18F-FDG) positron emission tomography (PET)-computed tomography (CT). Representative images and ingWAT ^18F-FDG standard uptake values (SUV) and normalised uptake per tissue volume are shown. Ptpn2^fl/fl and AgRP-TC male mice ingWAT depots were bilaterally sham-operated or denervated with 6-ODHA and j) weekly body weights recorded and k) energy expenditure measured. l) Ptpn2^fl/fl, AgRP-TC or AgRP-TC-IR male mice were fasted overnight and administered (intraperitoneal) insulin (0.85 mU/g, 15 min) and brains extracted for ARC p-AKT immunohistochemistry. m) Energy expenditure, n) body weights and o) ingWAT weights in 14-week-old Ptpn2^fl/fl, AgRP-TC or AgRP-TC-IR male mice. p-r) IngWAT and BAT were extracted from Ptpn2^fl/fl, AgRP-TC or AgRP-TC-IR male mice for gene expression analyses or histology/immunohistochemistry. s-t) 10-week-old Npy-hrGFP; Agrp-Ires-Cre mice were bilaterally injected with rAAV-hM4Di-mCherry into the ARC. […] Representative and quantified results (means±SEM) are shown for the indicated number of mice. * for significance between Ptpn2^fl/fl and AgRP-TC mice; # for significance between treated AgRP-TC or AgRP verses AgRP-TC-IR mice.
FIG. 10. […] Representative and quantified results (means±SEM) are shown for the indicated number of mice. […]

[3] = system: hypothalamic TCPTP (Ptpn2) expression; assay: ICV ghrelin, UDP or dexamethasone (plus or minus RU486) in re-fed mice; hypothalamic TCPTP immunohistochemistry and Ptpn2 real time PCR; conditions: for TCPTP protein levels (immunohistochemistry): ICV twice over 4 h in fasted and re-fed (4 h) mice
Description: Paraformaldehyde-fixed brains were extracted and processed for TCPTP immunohistochemistry. e) 8-week-old fed or 24 h fasted C57BL/6 male mice were administered (intraperitoneal) saline, or leptin (0.5 μg/g body weight, 45 min) and paraformaldehyde-fixed brains extracted for immunohistochemistry monitoring for STAT3 Y705 phosphorylation (p-STAT3) in the central-caudal ARC. f) Tissues from 8-week-old AgRP-TC mice were screened for the presence of the recombined Ptpn2 allele (ΔPtpn2) by PCR (Wiede et al., 2011). g) 8-week-old Ptpn2^fl/fl; Npy-hrGFP or AgRP-TC; Npy-hrGFP mice were perfused with paraformaldehyde and brains extracted and processed for immunohistochemistry monitoring for TCPTP in GFP-positive AgRP/NPY neurons in the central-caudal ARC. Yellow arrows depict TCPTP positive NPY cells, blue arrows depict TCPTP negative NPY cells. h) Brains from 8-week-old fed or 24 h fasted Ptpn2^fl/fl; Npy-hrGFP or AgRP-TC; Npy-hrGFP male mice were paraformaldehyde-fixed and processed for ARC p-AKT immunohistochemistry. i-j) 8-week-old Ptpn2^fl/fl or AgRP-TC male mice were fasted and injected (intraperitoneal) with saline, insulin (0.85 mU/g) or leptin (1 μg/g body weight) and hypothalami extracted 2 h later for quantitative PCR. k) 8-week-old Ptpn2^fl/fl; Npy-hrGFP or AgRP-TC; Npy-hrGFP male mice were fasted overnight and administered vehicle PBS or leptin (0.5 μg/g body weight, intraperitoneal) for 45 min and paraformaldehyde-fixed brains extracted and processed for immunofluorescence microscopy monitoring for p-STAT3 and GFP. l) Plasma insulin levels in 8-10-week-old fed or food restricted (just prior to lights out, 6:30 μm) C57BL/6 male mice.
Under 2% (v/v) isoflurane in 1 l/min oxygen 8-week-old AgRP-TC, Ptpn2^fl/fl or C57BL/6 mice were implanted stereotaxically with guide cannulas into the right lateral ventricle (0.2 mm posterior, 1.0 mm lateral from bregma). […] Mice received a second injection 2 h later and after a further 2 h mice were perfused with paraformaldehyde for immunohistochemical analysis, or hypothalami extracted for quantitative real time PCR.

[4] = system: 20-week high fat fed C57BL/6 male mice; assay: Intra-ARC infusion of TCPTP inhibitor in 20-week high fat fed mice switched to chow diet; conditions: intra-ARC 0.5 nmol/day at 0.25 ul/h, mice placed on chow diet (9% fat)
Description: FIG. 18. […] 2-weeks post AAV injection mice were placed on chow diet (9% fat) and weekly body weight was monitored. b) 20-week high fat fed (23% fat) C57BL/6 male mice were implanted with bilateral intraARC cannula connected to Alzet osmotic minipumps (Alzet, 1002) and infused with vehicle or TCPTP inhibitor (compound 8 as described herein, 0.5 nmol/day at a rate of 0.25 ul/h). Mice were placed on chow diet (9% fat) and daily body weight was monitored.
2-weeks post AAV injection mice were placed on chow diet (9% fat) and weekly body weight was monitored. b) 20-week high fat fed (23% fat) C57BL/6 male mice were implanted with bilateral intra-ARC cannula connected to Alzet osmotic minipumps (Alzet, 1002) and infused with vehicle or TCPTP inhibitor (compound 8, 0.5 nmol/day at a rate of 0.25 ul/h). Mice were placed on chow diet (9% fat) and daily body weight was monitored.

diet-induced obese mice [5] = assay: ICV RU486 for 10 consecutive days in 12-week high fat fed mice; conditions: ICV 1 μg/animal
Description: FIG. 16. […] 12 week high fat fed C57BL/6 male mice were mice were sham or bi-laterally denervated (6-ODHA) to prevent WAT browning and then administered the glucocorticoid antagonist RU486 intracerebroventricularly (ICV; 1 μg/animal), twice daily (9 am & […]) for 10 consecutive days. Effects on body weight and adiposity (EchoMRI and fad pad weight) were determined. WAT browning was assessed by gross morphology.
FIG. 17. A glucocorticoid antagonist promotes WAT browning and increases energy expenditure without any obvious adverse behavioral effects. […] Effects on energy expenditure (indirect calorimetry) and stereotypical behaviors were determined using the Promethion metabolic cage system.
FIG. 22. […] 12-week high fat fed C57BL/6 male mice received glucocorticoid antagonist (RU486: 0.1, 1 and 2 μg/animal/day, ICV) for 10 consecutive days and a) body weights, b) food intake, c) adiposity (EchoMRI and fad pad weight), d) energy expenditure were determined.
Insulin and glucose tolerance tests and blood glucose and plasma insulin were measured as described previously (Dodd et al., 2015 as above; Loh et al., 2009 Cell Metab 10, 260-272). Plasma corticosterone was measured by ELISA (Arbor Assays). […]
Effects on body weight and adiposity (EchoMRI and fat pad weight) were determined. […]
Effects on energy expenditure and stereotypical behaviours were determined using the Promethion metabolic cages system.

[6] = system: 8-10-week C57BL/6 male mice; assay: Intranasal RU486 or Claramine for 10 consecutive days in 8-10-week C57BL/6 male mice; conditions: RU486 1, 5, 10 or Claramine 1, 10 and 20 μg/animal/day
Description: 8-10-week C57BL/6 male mice were mice received glucocorticoid antagonist (RU486: 1, 5, 10 μg/animal/day; intranasal; 12 μl total volume) and/or PTP1B inhibitor (Claramine: 1, 10 and 20 μg/animal/day, intranasal; 12 μl total volume) for 10 consecutive days and effects on a, f) body weight, b, g) food intake, c, h) adiposity (EchoMRI and fad pad weight) was determined.

diet-induced obese mice [7] = assay: Behavioral satiety sequence after ICV Claramine in overnight fasted high fat fed mice; conditions: ICV 1 and 10 μg/animal
Description: (§1) FIG. 23. CNS administration of PTP1B inhibitor (Claramine) dose dependently attenuates body weight, adiposity and food intake without regulating energy expenditure in diet-induced obese mice. […] Data were collected into 5 min time bins and are presented as percentage of total behavior. Crossover graphs indicating the point of transition from eating to resting and the dashed line represents the time bin in which groups spent an equivalent amount of time eating and resting and is represented as f) time of cross over.

diet-induced obese mice [8] = assay: ICV Claramine for 10 consecutive days in 12-week high fat fed mice; conditions: ICV 1 and 10 μg/animal/day
Description: as §1

PTP1B levels = assay: ICV MG132 in fasted (24 h) mice re-fed 4 h; MBH immunoblotting for PTP1B; conditions: ICV 2 μl 50 μM, 4 h re-feeding
TCPTP protein in the MBH = assay: ICV MG132 in fasted (24 h) mice re-fed 4 h; MBH immunoblotting for TCPTP; conditions: ICV 2 μl 50 μM, 4 h re-feeding
Description: The alterations in hypothalamic TCPTP in fed and fasted mice might be a specific response to nutritional signals. To explore this, experiments were performed to determined when the hypothalamic TCPTP levels returned to the pre-fasted state, when 24 h fasted mice were re-fed for 4 h (FIG. 1a). Hypothalamic TCPTP protein, as assessed by immunoblotting MBH homogenates (FIG. 1c), or Ptpn2 expression, as assessed by real time PCR (FIG. 1d), declined to pre-fasted levels in re-fed mice. The decline in TCPTP occurred throughout the ARC (FIG. 8c). The decline in TCPTP was accompanied by increased IR and AKT phosphorylation (FIG. 1e), consistent with the potential enhancement of insulin sensitivity. Since the half-life for TCPTP protein is roughly 16 h (Bukczynska et al., 2004), we reasoned that the decline in TCPTP might reflect increased degradation. The proteasome can influence hypothalamic protein abundance in response to feeding (Sasaki et al., 2010). To test its contribution to TCPTP degradation in re-fed mice, we administered fasted (24 h) mice the proteasome inhibitor MG132 intracerebroventricularly (ICV) and assessed the influence on TCPTP protein in the MBH after 4 h of re-feeding.

For insulin: human insulin (SIGMA), the “ARC p-AKT in response to insulin” value ([1]; 24 h fasted C57BL6 mice) was “only modestly increased” and the “induction of ARC p-AKT in response to insulin” value ([1]; fed C57BL6 mice) was 3-4 fold.
`C[N+]1([O-])CCN(C2=Nc3cc(Cl)ccc3Nc3ccccc32)CC1` [CNO, clozapine-N-oxide] was tested, and the body weights [2] was “decreased”, the food intake [2] was “decreased” and the WAT browning ([2]; sham-operated vs 6-OHDA denervated inguinal fat pads) was “marked WAT browning in the sham-operated, but not in the contralateral 6-OHDA denervated inguinal fat pads”.
With `O=c1ccn([C@@H]2O[C@H](COP(=O)(O)OP(=O)(O)O)[C@@H](O)[C@H]2O)c(=O)[nH]1` [UDP, uridine 5′-diphosphate] the “TCPTP protein levels (immunohistochemistry)” value [3] was “Neither ghrelin nor UDP overtly altered”.
In the case of `CCc1ccc(C(=O)NCCCCC(NC(=O)C(Cc2ccc(C(F)(F)P(=O)(O)O)cc2)NC(=O)C(Cc2ccccc2)NC(=O)COC2CC(C)CCC2C(C)C)C(N)=O)cc1` (stereo not drawn) [compound 8], the “diet-induced weight loss (daily body weight)” value [4] is reported as “enhances diet-induced weight loss”.
For `CC#C[C@]1(O)CC[C@H]2[C@@H]3CCC4=CC(=O)CCC4=C3[C@@H](c3ccc(N(C)C)cc3)C[C@@]21C` [RU486, 17-beta-hydroxy-11-beta-(4-dimethyl-aminophenyl)-17-alpha(1-propynyl)-estra-4,9-dien-3-one], the adverse behaviours (diet-induced obese mice [5]) was “not accompanied by adverse behaviours such as inactivity, hyperactivity or sedation”.
For `CC(C)CCC[C@@H](C)[C@H]1CC[C@H]2[C@@H]3C[C@@H](NCCCNCCCCNCCCN)C4C[C@@H](O)CC[C@]4(C)[C@H]3CC[C@]12C` (stereo partly drawn) [Claramine, (3β3,6β3)-6-[[3-[[4-[(3-Aminopropyl)amino]butyl]amino]propyl]amino]-cholestan-3-ol], the adaptive thermogenesis [6] was “dose dependent effect”, the adiposity [6] was “dose dependent effect” and the body weight [6] was “dose dependent effect”. The food intake [6] was “dose dependent effect”, the “adverse side effects as cause of reduced food intake” value (diet-induced obese mice [7]) was “not by adverse side effects such as sedation or nausea” and the behavioral satiety sequence (diet-induced obese mice [7]; overnight fasted, presented with food) was “dose dependent shift”. The “adiposity (EchoMRI and fad pad weight)” value (diet-induced obese mice [8]) was “dose dependent attenuation”, the body weights (diet-induced obese mice [8]) was “dose dependent attenuation” and the food intake (diet-induced obese mice [8]) was “dose dependent attenuation”.
With ghrelin the “TCPTP protein levels (immunohistochemistry)” value [3] was “Neither ghrelin nor UDP overtly altered” and the “increase in Ptpn2 message” value ([3]; ICV twice over 4 h in re-fed mice, real time PCR) was ~3 fold.
With `CC(C)C[C@@H](C=O)NC(=O)[C@H](CC(C)C)NC(=O)[C@H](CC(C)C)NC(=O)OCc1ccccc1` [MG132] (Cbz-Leu-Leu-Leu-aldehyde) the PTP1B levels (PTP1B levels) was “without affecting” and the “feeding-induced degradation of TCPTP” value (TCPTP protein in the MBH) was “completely prevented”.
